In patent publication US20260049078A1, “DIFLUORO- AND TRIFLUORO-ACETYL HYDRAZIDES AS SELECTIVE HDAC6 INHIBITORS” (ITALFARMACO S.P.A., priority 2022, published 2026):
Where two headings read alike, the source gives them in different places.

Assays:
[1] = system: SH-SY5Y cells; experiment: In vitro α-tubulin acetylation in undifferentiated SH-SY5Y cells; type: cell-based; settings: overnight, @1uM
Protocol: SH-SY5Y cells (ATCC, cod. CRL-2266) are plated in optical optimized 96-well black plates (Perkin Elmer, cod. 6055302) at 5000 cells/well in 100 μl/well of growth medium (DMEM/F12 (1:1)+10 mM hepes+100 units/mL of penicillin+100 μg/mL of streptomycin+10% of inactivated Foetal calf serum (FCS, Hyclone)).
After 24 h of seeding, cells are incubated overnight with the selected molecules at 0.1-1-10 μM. ACY1083 and Tubastatin A, at the same doses, are tested as positive controls of α-Tubulin acetylation, while untreated cells are incubated with 0.01% DMSO and indicated as CTRL DMSO.
At the end of the incubation, cells are fixed adding 100 μL/well of formaldehyde 8% in PBS (final formaldehyde concentration 4% in 200 μL/well) directly in the 100 μL/well of medium, for 30 min at RT. The fixing solution is carefully removed, and wells are washed twice with PBS for 10 min each. Fixed cells are kept in PBS at 4° C. until staining.
The day of the staining experiment, the fixed cells are incubated 60 min with the blocking buffer (PBS with 5% FCS+0.3% Triton™ X-100). While blocking, primary antibodies are prepared by diluting 1:200 the α-Tubulin Alexa Fluor 488 Conjugate (Cell Signaling, cod. 5063) antibody and 1:50 Acetyl-α-Tubulin Alexa Fluor 647 Conjugate (Cell Signaling, cod. 81502) antibody in the Antibody Dilution Buffer (PBS with 1% BSA+0.3% Triton™ X-100). Once the blocking solution is aspirated, the diluted primary antibodies are applied and incubated overnight at 4° C. The next day, cells are rinsed twice with PBS (10 min each), incubated 5 min with 300 nM DAPI in PBS, and then rinsed twice with PBS (10 min each). For each treatment, 3 wells are stained.
Images of the stained cells are acquired by means of the IN Cell Analyzer 2500 HS Instrument, using: far red channel for Acetyl-α-Tubulin staining (exposure 0.02 sec), green channel for α-Tubulin staining (exposure 0.02 sec), and blue channel for DAPI (nuclei) staining. For each well, 10 images are acquired.
Images of stained cells are analysed with the InCarta software (Molecular Devices) for obtaining fluorescence intensity considering whole cells. For each treatment, mean values of Cell intensity—Bckg (Cell), for both staining, are obtained using the InCarta raw data by FOV (Field of View). Results are expressed as fold increase of the ratio of acetylated tubulin and total tubulin towards control (CTRL DMSO).

[2] = system: human B cell precursor leukemia 697; experiment: In vitro α-tubulin acetylation in 697 cell line; type: cell-based; settings: read-out: TubAc 697 cells EC50
Protocol: The in vitro α-tubulin acetylation was evaluated on human B cell precursor leukemia 697.
The 697 cells were maintained in RPMI Medium 1640 (Gibco, cat: 21875-034) supplemented with 10 mM HEPES (Gibco, cat: 15630-080), Pen-Strep (Penicillin 100 U/ml, Streptomycin 100 μg/ml, Gibco, cat: 15140-122) and 10% fetal bovine serum (Gibco, cat: 10270-106).
The cells were plated in 12-well plates (Costar, cat: 3512) at the density of 5.5×10^5 cells/ml.
Serial dilutions of test compounds in DMSO were prepared using 20 mM stock solutions to obtain 8 doses 200× concentrated in respect to final doses (2.7-100000 nM). Then the DMSO solutions were diluted 10× in culture medium to obtain 20× concentrated solutions which were used for cells treatment (125 μl of medium solutions were added to 2.375 ml of cells suspension). The final DMSO content was set as 0.5%. The plates were incubated at 37° C., 5% CO2 for 16 hours.
At the end of the incubation period, the cells were harvested and centrifuged for 5 minutes at 200×g and washed with 0.9% NaCl at 4° C. The resulting pellet was treated for 30 minutes at 4° C. with 100 μl Complete Lysis-M buffer containing protease inhibitors (Complete Lysis-M Roche+Complete Tablets, Mini Easypack, cat: 4719956001) and phosphatase inhibitor cocktails (PhosStop Easypack, Roche, cat: 4906837001) and then centrifuged 10 minutes at 18213×g. The protein concentration in each supernatant was determined using BCA Protein Assay Kit (Pierce, cat: 23227). The samples were diluted in PBS 1× to obtain 2 μg/ml concentration and coated in MaxiSorp 96-well plates (Nunc, cat: 442404). The plates were incubated overnight at room temperature.
Plates were washed twice with Wash Buffer (PBS 1×+0.005% tween 20) and saturated for 1 hour at room temperature with 300 μL of 1×PBS containing 10% FBS. After washing twice with Wash Buffer, the plates were incubated for 2 hours at room temperature in the presence of 100 μl/well either anti-acetylated-α-tubulin antibody (Monoclonal Anti-Tubulin, Acetylated antibody produced in mouse, Sigma-Aldrich, cat: T6793) or total anti-α-tubulin antibody (Monoclonal Anti-α-Tubulin produced in mouse, Sigma-Aldrich, cat: T6074) diluted 1:1000 in 1×PBS containing 10% FBS. Following 5 washing cycles with Wash Buffer the secondary antibody conjugated with the enzyme HRP (Goat anti-Mouse IgG, IgM, IgA (H+L), stock concentration 0.5 mg/ml, Thermo Fisher Scientific, cat: A10668), diluted 1:1000 in 1×PBS+10% FBS was added at the volume of 100 μl/well. After two hours of incubation at room temperature the plates were washed 4 times with Wash Buffer, then 100 μl/well of TMB substrate (TMB substrate kit, Thermo Fisher Scientific, cat: 34021) was added for 10 minutes at room temperature in the dark. The reaction was stopped by adding 50 μl of 2M H2SO4. The plates were read in BioTek Synergy H1 multimode microplate reader at a wavelength of 450 nm.
The measured absorbance was corrected by subtracting the mean of blank values (samples without the primary antibody). The absorbance ratios of acetyl to total tubulin assays were calculated and normalized to the reference compound (positive control) 4 parameter logistic curve, where 0% is the fitted bottom and 100% is the fitted top of the curve. The results are expressed as relative EC50.

[3] = system: HDAC6; experiment: Kinetic of prodrug disappearing when incubated with HDAC6 (LC-HRMS); type: biochemical; settings: HDAC6 1 μM, 5 μM compound, 25° C.; for half-life at 5 µM: HDAC6 enzyme in assay buffer, read-out: T1/2 of prodrug disappearing
Protocol: The LC-HRMS analysis was carried out using a Vanquish Flex UHPLC (Thermo Fisher Scientific) and a high-resolution mass spectrometer Orbitrap QExactive Focus (Thermo Fisher Scientific), equipped with a Heated Electrospray Ionization, operated in positive mode. A Full Scan analysis was set in the m/z range 50-500 amu. A XSelect HSS T3 50×2.1 mm, 2.5 μm chromatographic column (Waters) was used. Mobile phase A consisted of 0.1% formic acid in water and mobile phase B in 0.1% formic acid in acetonitrile. The flow rate was set to 0.5 mL/min, with a gradient program from 3 to 20% B in 3 minutes.

## FC(F)c1nnc(-c2ccc(Cn3cc(-c4ccc(NC5=NCCN5)cc4)nn3)cc2)o1 [Compound 1-A]
[1]
  TubAc SH-SY5Y cells fold increase of the ratio of acetylated tubulin and total tubulin towards control: 2 fold
[2]; Homo sapiens, B-cell, 16 h
  EC50: 585 nM

## Nc1nc2ccc(-c3cn(Cc4ccc(-c5nnc(C(F)F)o5)cc4F)nn3)cc2s1 [Compound 2-A]
[1]
  TubAc SH-SY5Y cells fold increase of the ratio of acetylated tubulin and total tubulin towards control: 6.2 fold
[3]; time 0 min
  percentage of compound concentration (prodrug remaining): 100.00%
[3]; time 30 min
  percentage of compound concentration (prodrug remaining): 73.1%
[3]; time 60 min
  percentage of compound concentration (prodrug remaining): 53.6%
[3]; time 120 min
  percentage of compound concentration (prodrug remaining): 31.1%
[3]; time 240 min
  percentage of compound concentration (prodrug remaining): 11.1%
[3]; time 360 min
  percentage of compound concentration (prodrug remaining): 3.9%
[3]; time 480 min
  percentage of compound concentration (prodrug remaining): 1.3%
[3]
  half-life at 5 µM: 1.29 h
[2]; Homo sapiens, B-cell, 16 h
  EC50: 130 nM

## FC(F)c1nnc(-c2ccc(Cn3cc(-c4ccccc4)nn3)nc2)o1 [Compound 13-A]
[2]; Homo sapiens, B-cell, 16 h
  EC50: 505 nM

## Fc1ccccc1-c1cn(Cc2ccc(-c3nnc(C(F)F)o3)cn2)nn1 [Compound 14-A]
[1]
  TubAc SH-SY5Y cells fold increase of the ratio of acetylated tubulin and total tubulin towards control: 6.3 fold
[2]; Homo sapiens, B-cell, 16 h
  EC50: 476 nM

## FC(F)c1nnc(-c2ccc(Cn3cc(-c4ccccn4)nn3)nc2)o1 [Compound 20-A]
[2]; Homo sapiens, B-cell, 16 h
  EC50: 1210 nM

## Nc1nc2ccc(-c3cn(Cc4ccc(-c5nnc(C(F)F)o5)cc4)nn3)cc2s1 [Compound 32-A]
[1]
  TubAc SH-SY5Y cells fold increase of the ratio of acetylated tubulin and total tubulin towards control: 6.3 fold
[2]; Homo sapiens, B-cell, 16 h
  EC50: 85 nM

## Nc1nc2ccc(-c3cn(Cc4ccc(-c5nnc(C(F)F)o5)cc4Cl)nn3)cc2s1 [Compound 37-A]
[1]
  TubAc SH-SY5Y cells fold increase of the ratio of acetylated tubulin and total tubulin towards control: 6 fold
[3]; time 0 min
  percentage of compound concentration (prodrug remaining): 100.00%
[3]; time 30 min
  percentage of compound concentration (prodrug remaining): 88.1%
[3]; time 60 min
  percentage of compound concentration (prodrug remaining): 69.2%
[3]; time 120 min
  percentage of compound concentration (prodrug remaining): 38.4%
[3]; time 240 min
  percentage of compound concentration (prodrug remaining): 12.1%
[3]; time 360 min
  percentage of compound concentration (prodrug remaining): 3.7%
[3]; time 480 min
  percentage of compound concentration (prodrug remaining): 1.3%
[3]
  half-life at 5 µM: 1.24 h
[2]; Homo sapiens, B-cell, 16 h
  EC50: 65 nM

## Nc1nc2ccc(-c3cn(Cc4ccc(-c5nnc(C(F)F)o5)cn4)nn3)cc2s1 [Compound 38-A]
[1]
  TubAc SH-SY5Y cells fold increase of the ratio of acetylated tubulin and total tubulin towards control: 10 fold
[2]; Homo sapiens, B-cell, 16 h
  EC50: 76 nM

## Nc1nc2ccc(C3CN(Cc4ccc(C(=O)NNC(=O)C(F)F)s4)N=N3)cc2s1 (centres unmarked) [Compound 48-A]
[1]
  TubAc SH-SY5Y cells fold increase of the ratio of acetylated tubulin and total tubulin towards control: 15.7 fold
[2]; 697 cells, 16 hours, relative EC50
  EC50: 7.5 nM
